Laboratory results as given in the OPERA property sets (Mansouri et al. 2018).
≈ marks a conversion by molar mass, not a printed value.

CCOC(=O)c1ccc(O)cc1 gave a solubility (25 °C) of 4.91 mM (≈ 816 µg/mL).
CCOP(=S)(OCC)SCC(=O)NC(C)C gave a solubility (20 °C) of 8.76 mM (≈ 2500 µg/mL).
Work on CC(C)(C)NCC(O)c1ccc(O)c(CO)c1 (stereo not drawn) yielded a solubility of 59.3 mM (≈ 14200 µg/mL).
CC12CCC(CC1=O)C2(C)C (stereo not drawn) showed a solubility (25 °C) of 2.63 mM (≈ 400 µg/mL).
Work on CNC(=O)Oc1cc(C(C)(C)C)cc(C(C)(C)C)c1 yielded a solubility (20 °C) of 0.057 mM (≈ 15 µg/mL).
With CCC(C)CC the solubility (25 °C) was 0.208 mM (≈ 17.9 µg/mL).
Molecule O=C(O)c1ccccc1C(=O)O has a solubility (25 °C) of 42.1 mM (≈ 6990 µg/mL).
For N[C@@H](Cc1ccccc1)C(=O)O (racemic), the solubility (22 °C) was 134 mM (≈ 22100 µg/mL).
CCCCCCCO gave a solubility (25 °C) of 14.4 mM (≈ 1670 µg/mL).
For CCN(CC)c1c([N+](=O)[O-])cc(C(F)(F)F)c(N)c1[N+](=O)[O-], the solubility (25 °C) was 0.00341 mM (≈ 1.1 µg/mL).
C[C@]12CCC(=O)C=C1CC[C@@H]1[C@@H]2CC[C@@]2(C)[C@H]1CC[C@]2(C)O gave a solubility (25 °C) of 0.112 mM (≈ 33.9 µg/mL).
O=C1OC(c2ccc(O)cc2)(c2ccc(O)cc2)c2ccccc21 gave a solubility of 1.26 mM (≈ 400 µg/mL).
With CCCCCCCCC=O the solubility (25 °C) was 0.675 mM (≈ 96 µg/mL).
O=[N+]([O-])C(Br)(CO)CO gave a solubility (22 °C) of 1250 mM (≈ 250000 µg/mL).
In the case of C1=CCCCC1, the solubility (25 °C) is reported as 2.59 mM (≈ 213 µg/mL).
Molecule CC(C)C[C@H](N)C(=O)O has a solubility (25 °C) of 141 mM (≈ 18500 µg/mL).
For CCCCC(=O)O, the solubility (25 °C) was 384 mM (≈ 39200 µg/mL).
In the case of O=[N+]([O-])c1ccc(Cl)cc1, the solubility (20 °C) is reported as 1.43 mM (≈ 225 µg/mL).
ClC(Cl)=C(c1ccc(Cl)cc1)c1ccc(Cl)cc1 gave a solubility (25 °C) of 0.000126 mM (≈ 0.04 µg/mL).
With COc1cc(Cl)c(OC)cc1Cl the solubility (25 °C) was 0.0386 mM (≈ 8 µg/mL).
CCOC(=O)c1ccc(N)cc1 gave a solubility (30 °C) of 7.93 mM (≈ 1310 µg/mL).
Molecule CCNc1nc(NC(C)C)nc(SC)n1 has a solubility (25 °C) of 0.919 mM (≈ 209 µg/mL).
For CCNc1nc(NC(C)(C)C)nc(SC)n1, the solubility (20 °C) was 0.104 mM (≈ 25 µg/mL).
CCC1(CCC(C)C)C(=O)NC(=O)NC1=O showed a solubility (25 °C) of 2.67 mM (≈ 603 µg/mL).
In the case of O=Cc1ccco1, the solubility (25 °C) is reported as 801 mM (≈ 77000 µg/mL).
Molecule CCCC(C)(COC(N)=O)COC(N)=O has a solubility (25 °C) of 21.5 mM (≈ 4700 µg/mL).
In the case of S=C=S, the solubility (20 °C) is reported as 15.5 mM (≈ 1180 µg/mL).
In the case of CN1CCN(CCCN2c3ccccc3Sc3ccc(Cl)cc32)CC1, the solubility (24 °C) is reported as 0.04 mM (≈ 15 µg/mL).
In the case of c1ccc(-c2ccccc2)cc1, the solubility (25 °C) is reported as 0.045 mM (≈ 6.94 µg/mL).
CC1(C)C(=O)N(Cl)C(=O)N1Cl showed a solubility (20 °C) of 2.54 mM (≈ 500 µg/mL).
With Cc1ccc2cc3c(ccc4ccccc43)cc2c1 the solubility (24 °C) was 0.000153 mM (≈ 0.037 µg/mL).
N[C@@H](Cc1c[nH]c2ccccc12)C(=O)O showed a solubility (25 °C) of 65.6 mM (≈ 13400 µg/mL).
O=Cc1ccccc1 gave a solubility (25 °C) of 61.9 mM (≈ 6570 µg/mL).
In the case of Cc1cc(O)cc(C)c1Cl, the solubility (20 °C) is reported as 1.6 mM (≈ 250 µg/mL).
For CC(Oc1cc(Cl)c(Cl)cc1Cl)C(=O)O (stereo not drawn), the solubility (23 °C) was 0.341 mM (≈ 92 µg/mL).
For BrCCCBr, the solubility (20 °C) was 8.42 mM (≈ 1700 µg/mL).
Work on OC(O)C(Cl)(Cl)Cl yielded a solubility (25 °C) of 4790 mM (≈ 793000 µg/mL).
CC[N+](=O)[O-] gave a solubility (25 °C) of 626 mM (≈ 47000 µg/mL).
Work on Nc1nc(N)nc(N)n1 yielded a solubility (20 °C) of 25.6 mM (≈ 3230 µg/mL).
Work on CC[C@H](C)[C@H](N)C(=O)O (racemic) yielded a solubility (24 °C) of 262 mM (≈ 34400 µg/mL).
Work on O=[N+]([O-])c1cccc(Cl)c1 yielded a solubility (20 °C) of 1.73 mM (≈ 273 µg/mL).
Work on CCC1(c2ccccc2)CCC(=O)NC1=O (stereo not drawn) yielded a solubility (30 °C) of 4.6 mM (≈ 999 µg/mL).
Work on O=C(O)c1cccnc1C(=O)O yielded a solubility (25 °C) of 65.8 mM (≈ 11000 µg/mL).
With CCCCCCC(C)=O the solubility (20 °C) was 7.02 mM (≈ 900 µg/mL).
CCOP(=S)(OCC)Oc1nc(Cl)c(Cl)cc1Cl gave a solubility (24 °C) of 0.00319 mM (≈ 1.12 µg/mL).
CCCBr showed a solubility (20 °C) of 19.9 mM (≈ 2450 µg/mL).
Molecule CC(C)OC(=O)Nc1ccccc1 has a solubility (25 °C) of 0.999 mM (≈ 179 µg/mL).
Nc1ccccc1 showed a solubility (25 °C) of 387 mM (≈ 36000 µg/mL).
Molecule CCNC(=O)CSP(=S)(OC)OC has a solubility (25 °C) of 34.9 mM (≈ 8500 µg/mL).
For CCCCc1ccccc1, the solubility (25 °C) was 0.0879 mM (≈ 11.8 µg/mL).
With O=C(O)c1cccc([N+](=O)[O-])c1 the solubility (25 °C) was 21.4 mM (≈ 3580 µg/mL).
For CC(C)(C)C, the solubility (25 °C) was 0.46 mM (≈ 33.2 µg/mL).
For CCOCCOC(C)=O, the solubility (20 °C) was 1870 mM (≈ 247000 µg/mL).
With Nc1ccc2ccccc2c1 the solubility (25 °C) was 1.32 mM (≈ 189 µg/mL).
In the case of Oc1ncnc2[nH]ncc12, the solubility (25 °C) is reported as 4.18 mM (≈ 569 µg/mL).
With ClC1(Cl)C2(Cl)C3(Cl)C4(Cl)C(Cl)(Cl)C5(Cl)C3(Cl)C1(Cl)C5(Cl)C24Cl (stereo not drawn) the solubility (25 °C) was 0.000156 mM (≈ 0.085 µg/mL).
CC(=O)OC(C)=O gave a solubility (20 °C) of 1180 mM (≈ 120000 µg/mL).
Clc1ccc(Cl)cc1 showed a solubility (25 °C) of 0.553 mM (≈ 81.3 µg/mL).
For C[C@]12CC[C@H]3[C@@H](CCC4=CC(=O)CC[C@@H]43)[C@@H]1CC[C@@H]2O, the solubility (25 °C) was 11.3 mM (≈ 3090 µg/mL).
Molecule COP(=S)(OC)SCC(=O)N(C)C=O has a solubility (24 °C) of 10.1 mM (≈ 2600 µg/mL).
For C#CC(C)OC(=O)Nc1cccc(Cl)c1 (stereo not drawn), the solubility (20 °C) was 2.41 mM (≈ 540 µg/mL).
CCCCCCCCCCCCCCCCO showed a solubility (25 °C) of 9.69e-05 mM (≈ 0.0235 µg/mL).
Oc1cccc(O)c1O showed a solubility (25 °C) of 4020 mM (≈ 507000 µg/mL).
c1ccc(Nc2ccccc2)cc1 gave a solubility (20 °C) of 0.313 mM (≈ 53 µg/mL).
With Cn1cnc2c1c(=O)[nH]c(=O)n2C the solubility (25 °C) was 1.83 mM (≈ 330 µg/mL).
Work on O=[N+]([O-])c1cccc(Cl)c1Cl yielded a solubility (20 °C) of 0.325 mM (≈ 62.4 µg/mL).
NC(=O)NC1NC(=O)NC1=O (stereo not drawn) gave a solubility of 33.3 mM (≈ 5260 µg/mL).
CCCCCC(=O)O showed a solubility (25 °C) of 88.7 mM (≈ 10300 µg/mL).
With O=C(Nc1cccc(Cl)c1)OCC#CCCl the solubility (25 °C) was 0.0426 mM (≈ 11 µg/mL).
For CC(C)Br, the solubility (20 °C) was 24.6 mM (≈ 3020 µg/mL).
In the case of C#C, the solubility (20 °C) is reported as 46.1 mM (≈ 1200 µg/mL).
O=[N+]([O-])c1ccc(Cl)c(Cl)c1 gave a solubility (20 °C) of 0.63 mM (≈ 121 µg/mL).
Work on Clc1ccc(C(c2ccc(Cl)cc2)C(Cl)(Cl)Cl)cc1 yielded a solubility (25 °C) of 1.55e-05 mM (≈ 0.0055 µg/mL).
Molecule CCCCC(C)=O has a solubility (20 °C) of 175 mM (≈ 17500 µg/mL).
Molecule Cc1ccc(O)cc1 has a solubility (25 °C) of 199 mM (≈ 21500 µg/mL).
In the case of Cn1c(=O)c2[nH]cnc2n(C)c1=O, the solubility (25 °C) is reported as 40.9 mM (≈ 7360 µg/mL).
For Nc1ccc(C(=O)O)cc1, the solubility (30 °C) was 44.6 mM (≈ 6110 µg/mL).
In the case of Cc1cccc(O)c1, the solubility (25 °C) is reported as 210 mM (≈ 22700 µg/mL).
